Reference: patent publication US12180194B2, “Multi-aziridine compound” (Covestro (Netherlands) B.V., priority 2018, dated 2024)

Legend:
[1] = test system: Rtkn-GFP; assay: ToxTracker genotoxicity assay, Rtkn-GFP reporter induction; settings: for Genotoxicity test, Rtkn induction level: fold induction; for Genotoxicity test, With S9 rat liver extract, Rtkn, 10 / Genotoxicity test, Without S9 rat liver extract, Rtkn, 10: GFP induction vs vehicle at 10% cytotoxicity; for Genotoxicity test, With S9 rat liver extract, Rtkn, 10 / Genotoxicity test, With S9 rat liver extract, Rtkn, 25 / Genotoxicity test, With S9 rat liver extract, Rtkn, 50: 3 h exposure with S9, 24 h recovery; for Genotoxicity test, Without S9 rat liver extract, Rtkn, 10 / Genotoxicity test, Without S9 rat liver extract, Rtkn, 25 / Genotoxicity test, Without S9 rat liver extract, Rtkn, 50: 24 h exposure, no S9; for Genotoxicity test, With S9 rat liver extract, Rtkn, 25 / Genotoxicity test, Without S9 rat liver extract, Rtkn, 25: GFP induction vs vehicle at 25% cytotoxicity; for Genotoxicity test, With S9 rat liver extract, Rtkn, 50 / Genotoxicity test, Without S9 rat liver extract, Rtkn, 50: GFP induction vs vehicle at 50% cytotoxicity
[2] = test system: Bscl2-GFP; assay: ToxTracker genotoxicity assay, Bscl2-GFP reporter induction; settings: for Genotoxicity test, Bscl 2 induction level: fold induction; for Genotoxicity test, With S9 rat liver extract, Bscl 2, 10 / Genotoxicity test, Without S9 rat liver extract, Bscl 2, 10: GFP induction vs vehicle at 10% cytotoxicity; for Genotoxicity test, With S9 rat liver extract, Bscl 2, 10 / Genotoxicity test, With S9 rat liver extract, Bscl 2, 25 / Genotoxicity test, With S9 rat liver extract, Bscl 2, 50: 3 h exposure with S9, 24 h recovery; for Genotoxicity test, Without S9 rat liver extract, Bscl 2, 10 / Genotoxicity test, Without S9 rat liver extract, Bscl 2, 25 / Genotoxicity test, Without S9 rat liver extract, Bscl 2, 50: 24 h exposure, no S9; for Genotoxicity test, With S9 rat liver extract, Bscl 2, 25 / Genotoxicity test, Without S9 rat liver extract, Bscl 2, 25: GFP induction vs vehicle at 25% cytotoxicity; for Genotoxicity test, With S9 rat liver extract, Bscl 2, 50 / Genotoxicity test, Without S9 rat liver extract, Bscl 2, 50: GFP induction vs vehicle at 50% cytotoxicity
[3] = with S9 rat liver extract, concentration 10 (10% cytotoxicity)
[4] = with S9 rat liver extract, concentration 25 (25% cytotoxicity)
[5] = with S9 rat liver extract, concentration 50 (50% cytotoxicity)
[6] = without S9 rat liver extract, concentration 10 (10% cytotoxicity)
[7] = without S9 rat liver extract, concentration 25 (25% cytotoxicity)
[8] = without S9 rat liver extract, concentration 50 (50% cytotoxicity)

SMILES | Genotoxicity test, With S9 rat liver extract, Rtkn, 10 [1] [fold] | Genotoxicity test, Without S9 rat liver extract, Rtkn, 10 [1] [fold] | Genotoxicity test, With S9 rat liver extract, Rtkn, 25 [1] [fold] | Genotoxicity test, Without S9 rat liver extract, Rtkn, 25 [1] [fold] | Genotoxicity test, With S9 rat liver extract, Rtkn, 50 [1] [fold] | Genotoxicity test, Without S9 rat liver extract, Rtkn, 50 [1] [fold] | Genotoxicity test, With S9 rat liver extract, Bscl 2, 10 [2] [fold] | Genotoxicity test, Without S9 rat liver extract, Bscl 2, 10 [2] [fold] | Genotoxicity test, With S9 rat liver extract, Bscl 2, 25 [2] [fold] | Genotoxicity test, Without S9 rat liver extract, Bscl 2, 25 [2] [fold] | Genotoxicity test, With S9 rat liver extract, Bscl 2, 50 [2] [fold] | Genotoxicity test, Without S9 rat liver extract, Bscl 2, 50 [2] [fold] | also measured
COCCOCCOCCOCCOCCOCCOCCOCCOCCOCCOCCOCCOCCOCCOCCOCCOCCOCCOCCOCCOCCOCCOCCOCCOCCOCC(CN1CC1C)OC(=O)NCCCCCCn1c(=O)n(CCCCCCNC(=O)OC(COCCOCCOCCOCCOCCOCCOCCOCCOCCOCCOCCOCCOCCOCCOCCOCCOCCOCCOCCOCCOCCOCCOCCOCCOCCOC)CN2CC2C)c(=O)n(CCCCCCNC(=O)OC(COCCOCCOCCOCCOCCOCCOCCOCCOCCOCCOCCOCCOCCOCCOCCOCCOCCOCCOCCOCCOCCOCCOCCOCCOCCOC)CN2CC2C)c1=O (stereo not drawn) [Ex. 30] |  |  |  |  |  |  |  |  |  |  |  |  | Genotoxicity test, Rtkn induction level [1, 3]: 0.8; Genotoxicity test, Rtkn induction level [1, 4]: 0.9; Genotoxicity test, Rtkn induction level [1, 5]: 1.0; Genotoxicity test, Rtkn induction level [1, 6]: 0.9; Genotoxicity test, Rtkn induction level [1, 7]: 0.9; Genotoxicity test, Rtkn induction level [1, 8]: 1.0; Genotoxicity test, Bscl 2 induction level [2, 3]: 1.0; Genotoxicity test, Bscl 2 induction level [2, 4]: 1.5; Genotoxicity test, Bscl 2 induction level [2, 5]: 1.8; Genotoxicity test, Bscl 2 induction level [2, 6]: 1.0; Genotoxicity test, Bscl 2 induction level [2, 7]: 1.3; Genotoxicity test, Bscl 2 induction level [2, 8]: 1.6
CCCCOCC(CN1CC1C)OC(=O)NC(C)(C)c1cccc(C(C)(C)NC(=O)OC(COCCCC)CN2CC2C)c1 (stereo not drawn) [Ex. 11] | 1.3 | 1.1 | 1.3 | 1.3 | 1.1 | 1.3 | 1.2 | 1.1 | 1.3 | 1.3 | 1.3 | 1.3 | 
CC(CN1CC1C)OC(=O)NC1CCC(CC2CCC(NC(=O)OC(C)CN3CC3C)CC2)CC1 (stereo not drawn) [Comp. Ex. 9, reference compound] | 1.6 | 1.5 | 2.6 | 2.2 | 3.7 | 3.3 | 1.2 | 1.2 | 1.6 | 1.6 | 2.0 | 2.2 | 
C=CCOCC(CN1CC1C)OC(=O)NCCCCCCn1c(=O)n(CCCCCCNC(=O)OC(COCC=C)CN2CC2C)c(=O)n(CCCCCCNC(=O)OC(COCC=C)CN2CC2C)c1=O (stereo not drawn) [Ex. 9] | 1.1 | 1.0 | 1.1 | 1.1 | 1.2 | 1.1 | 1.2 | 1.1 | 1.2 | 1.2 | 1.2 | 1.2 | 
